One data set deals with membraneous ATPase. As to the kind of experiment: Inhibition of membraneous ATPase. Format: biochemical. To be noted: read-out: ED50 (dose causing 50% inhibition of membraneous ATPase). The source says:
The results obtained using the derivatives of the invention described in Examples 2, 6 and 7 and ouabain and digoxin are shown in Table 2 below.
In Table 2, the ED50 value is the dose causing 50% inhibition of membraneous ATPase.

Data set [1] has as its system isolated guinea pig auricle. As to the kind of experiment: Positive inotropic activity: increase in force of contraction on the isolated guinea pig auricle. To be noted: Cavia porcellus, read-out: Range of contractions in relation to the control values; for activation at 2 µM: 2 × 10^-6 Moles/l; for activation at 6 µM: 6 × 10^-6 Moles/l; for activation at 10 µM: 10^-5 Moles/l; for activation at 1 µM: 10^-6 Moles/l; for activation at 0.2 µM: 2 × 10^-7 Moles/l. An excerpt:
Inotropic activity has been verified on the isolated guinea pig auricle under normal experimental conditions, by recording the range of contractions for various doses administered in relation to control values.
Range of contractions in relation to the control values

A further data set relates to cardiac contractility. Nature of the data set: Toxicity versus increase in cardiac contractility in the anesthetized dog. Format: in vivo. The source says:
Similarly, the toxicity of the derivatives of the invention is reversible, that is, stopping their administration is sufficient to make problems observed using an electrocardiogram disappear.

With `C[C@@H]1O[C@@H](O[C@H]2CC[C@@]3(C)[C@H](CC[C@@H]4[C@@H]3CC[C@]3(C)[C@@H](CO)CC[C@]43N)C2)[C@H](O)[C@H](O)[C@H]1O` [Example 2, 3-O-(α-L-rhamnopyranosyl) 14β-amino 21-nor 5β-pregnane 3β,20-diol], the IC50 on membraneous ATPase stood at 130 pM.

Turning to `C[C@H](O)[C@H]1CC[C@]2(N)[C@@H]3CC[C@@H]4C[C@@H](O[C@@H]5O[C@@H](C)[C@H](O)[C@@H](O)[C@H]5O)CC[C@]4(C)[C@H]3CC[C@]12C` [Example 6, 3-O-(α-L-rhamnopyranosyl) 14β-amino 5β-pregnane 3β,20α-diol], in data set [1], the activation at 2 µM was 63%, the activation at 6 µM is 143%, the activation at 10 µM was found to be 148% and the activation at 1 µM is 43%. The “increase in cardiac contractility without any signs of toxicity” value with cardiac contractility came out at 150%. Besides, the signs of toxicity result with cardiac contractility (at 150% increase in cardiac contractility) is “without any signs of toxicity”. Besides, the IC50 on membraneous ATPase was determined as 180 pM.

For the compound `C[C@@H]1O[C@@H](O[C@H]2CC[C@@]3(C)[C@H](CC[C@@H]4[C@@H]3CC[C@]3(C)[C@@H]([C@@H](C)O)CC[C@]43N)C2)[C@H](O)[C@H](O)[C@H]1O` [Example 7, 3-O-(α-L-rhamnopyranosyl) 14β-amino 5β-pregnane 3β,20β-diol], in data set [1], the activation at 2 µM was found to be 178%, the activation at 0.2 µM was 50%, the activation at 6 µM was determined as 233% and the activation at 10 µM was 206%. Besides, the activation at 1 µM in data set [1] is 97%. For the same compound, the IC50 at membraneous ATPase came out at 70 pM.

In the case of `C[C@H]1O[C@@H](O[C@H]2[C@@H](O)C[C@H](O[C@H]3[C@@H](O)C[C@H](O[C@H]4CC[C@@]5(C)[C@H](CC[C@@H]6[C@@H]5C[C@@H](O)[C@]5(C)[C@@H](C7=CC(=O)OC7)CC[C@]65O)C4)O[C@@H]3C)O[C@@H]2C)C[C@H](O)[C@@H]1O` [digoxin, reference compound], in data set [1], the activation at 2 µM is 114%, the activation at 0.2 µM stood at 38%, the activation at 6 µM is 128% and the activation at 10 µM came to 128%. In addition, in data set [1], the activation at 1 µM stood at 100%. Further, the “increase in cardiac contractility at which toxic signs appear” value with cardiac contractility (same experimental conditions) was “approximately 50%”. Further, the IC50 on membraneous ATPase was 5300 pM.

On to `C[C@@H]1O[C@@H](O[C@H]2C[C@@H](O)[C@]3(CO)[C@H]4[C@H](O)C[C@]5(C)[C@@H](C6=CC(=O)OC6)CC[C@]5(O)[C@@H]4CC[C@]3(O)C2)[C@H](O)[C@H](O)[C@H]1O` [ouabain, reference compound], for which the IC50 on membraneous ATPase is 3600 pM.

Source of the values: patent US4552868A, “14-Amino steroid derivatives, a process for the preparation thereof and method of use thereof” (Etablissements Nativelle S.A., priority 1982, dated 1985).
